What follows are molecules tested against human Cav2.2 (Homo sapiens, UniProt Q00975) (assay: Assessment of calcium channel activity using FLIPR (Ca2+ influx in IMR32 cells)). Conditions: 60 minute pre-incubation with compound, 2 μM nifedipine, depolarized with 80 mM KCl.
Format: cell-based
Method in brief: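 IMR32 neuroblastoma cells seeded at 1-1.2×10^5 cells/well and grown 48 h at 37 °C before FLIPR Ca2+ influx read. Percent inhibition at each concentration vs no-inhibitor activity; IC50 by non-linear sigmoidal dose-response fit.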

human Cav2.2, sequence (Q00975 whole entry): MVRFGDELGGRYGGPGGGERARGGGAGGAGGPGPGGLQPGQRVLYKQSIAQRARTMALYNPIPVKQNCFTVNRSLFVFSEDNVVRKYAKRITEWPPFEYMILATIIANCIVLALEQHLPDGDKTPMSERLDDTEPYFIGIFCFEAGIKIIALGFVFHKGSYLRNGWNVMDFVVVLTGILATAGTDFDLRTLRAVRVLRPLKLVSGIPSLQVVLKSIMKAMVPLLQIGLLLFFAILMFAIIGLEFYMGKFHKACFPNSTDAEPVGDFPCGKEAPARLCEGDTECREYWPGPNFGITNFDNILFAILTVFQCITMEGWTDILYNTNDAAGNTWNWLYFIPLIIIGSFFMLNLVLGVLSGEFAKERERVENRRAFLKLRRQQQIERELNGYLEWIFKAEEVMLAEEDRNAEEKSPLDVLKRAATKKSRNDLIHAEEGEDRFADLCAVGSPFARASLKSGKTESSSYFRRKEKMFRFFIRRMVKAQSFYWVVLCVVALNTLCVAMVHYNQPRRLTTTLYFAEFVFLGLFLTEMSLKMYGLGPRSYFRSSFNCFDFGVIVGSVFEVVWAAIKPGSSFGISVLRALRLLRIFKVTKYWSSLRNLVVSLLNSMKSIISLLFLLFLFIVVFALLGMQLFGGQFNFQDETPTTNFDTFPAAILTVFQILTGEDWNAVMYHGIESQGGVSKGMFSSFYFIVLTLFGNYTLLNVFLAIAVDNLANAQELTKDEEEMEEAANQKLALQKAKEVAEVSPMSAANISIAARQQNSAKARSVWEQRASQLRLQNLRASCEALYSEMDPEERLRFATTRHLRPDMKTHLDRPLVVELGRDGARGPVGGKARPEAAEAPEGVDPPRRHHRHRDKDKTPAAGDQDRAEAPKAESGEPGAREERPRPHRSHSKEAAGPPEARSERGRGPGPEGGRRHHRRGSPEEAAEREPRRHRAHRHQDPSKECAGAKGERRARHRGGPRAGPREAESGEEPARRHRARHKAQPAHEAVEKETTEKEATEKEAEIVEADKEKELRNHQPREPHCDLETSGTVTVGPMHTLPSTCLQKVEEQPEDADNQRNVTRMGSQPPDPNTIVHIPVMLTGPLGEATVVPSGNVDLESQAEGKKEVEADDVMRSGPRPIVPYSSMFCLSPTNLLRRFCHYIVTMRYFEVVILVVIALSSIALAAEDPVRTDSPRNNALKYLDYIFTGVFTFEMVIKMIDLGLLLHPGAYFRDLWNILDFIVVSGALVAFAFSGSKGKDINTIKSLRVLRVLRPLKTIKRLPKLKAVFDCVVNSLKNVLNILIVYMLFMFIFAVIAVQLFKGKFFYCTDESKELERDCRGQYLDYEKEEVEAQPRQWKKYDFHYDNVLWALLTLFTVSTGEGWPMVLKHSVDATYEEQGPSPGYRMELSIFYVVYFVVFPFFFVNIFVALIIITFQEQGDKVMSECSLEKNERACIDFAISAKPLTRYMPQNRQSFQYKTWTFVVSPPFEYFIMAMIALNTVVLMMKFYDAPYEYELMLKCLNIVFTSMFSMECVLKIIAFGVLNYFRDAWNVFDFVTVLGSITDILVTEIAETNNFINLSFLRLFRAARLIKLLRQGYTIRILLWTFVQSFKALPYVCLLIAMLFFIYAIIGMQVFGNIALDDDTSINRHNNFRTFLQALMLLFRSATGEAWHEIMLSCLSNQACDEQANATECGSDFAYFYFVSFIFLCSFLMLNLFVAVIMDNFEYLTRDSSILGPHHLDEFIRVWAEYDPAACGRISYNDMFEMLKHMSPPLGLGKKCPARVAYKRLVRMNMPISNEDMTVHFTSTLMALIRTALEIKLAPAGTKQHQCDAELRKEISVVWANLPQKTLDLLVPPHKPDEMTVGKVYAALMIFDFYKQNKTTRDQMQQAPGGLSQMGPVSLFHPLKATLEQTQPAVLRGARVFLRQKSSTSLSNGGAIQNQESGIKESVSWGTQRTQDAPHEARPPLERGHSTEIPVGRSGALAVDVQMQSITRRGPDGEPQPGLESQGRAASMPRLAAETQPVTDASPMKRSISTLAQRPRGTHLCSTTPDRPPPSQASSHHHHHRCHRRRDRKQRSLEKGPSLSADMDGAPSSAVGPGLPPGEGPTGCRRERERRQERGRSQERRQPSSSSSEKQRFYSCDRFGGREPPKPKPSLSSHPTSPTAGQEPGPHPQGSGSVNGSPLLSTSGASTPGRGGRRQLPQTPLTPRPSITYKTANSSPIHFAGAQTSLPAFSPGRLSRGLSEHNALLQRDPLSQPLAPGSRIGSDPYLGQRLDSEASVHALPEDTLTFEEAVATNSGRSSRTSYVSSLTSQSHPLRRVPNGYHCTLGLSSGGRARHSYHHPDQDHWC
human Cav2.2, sequence (P54289 25-946 partner limits assumed): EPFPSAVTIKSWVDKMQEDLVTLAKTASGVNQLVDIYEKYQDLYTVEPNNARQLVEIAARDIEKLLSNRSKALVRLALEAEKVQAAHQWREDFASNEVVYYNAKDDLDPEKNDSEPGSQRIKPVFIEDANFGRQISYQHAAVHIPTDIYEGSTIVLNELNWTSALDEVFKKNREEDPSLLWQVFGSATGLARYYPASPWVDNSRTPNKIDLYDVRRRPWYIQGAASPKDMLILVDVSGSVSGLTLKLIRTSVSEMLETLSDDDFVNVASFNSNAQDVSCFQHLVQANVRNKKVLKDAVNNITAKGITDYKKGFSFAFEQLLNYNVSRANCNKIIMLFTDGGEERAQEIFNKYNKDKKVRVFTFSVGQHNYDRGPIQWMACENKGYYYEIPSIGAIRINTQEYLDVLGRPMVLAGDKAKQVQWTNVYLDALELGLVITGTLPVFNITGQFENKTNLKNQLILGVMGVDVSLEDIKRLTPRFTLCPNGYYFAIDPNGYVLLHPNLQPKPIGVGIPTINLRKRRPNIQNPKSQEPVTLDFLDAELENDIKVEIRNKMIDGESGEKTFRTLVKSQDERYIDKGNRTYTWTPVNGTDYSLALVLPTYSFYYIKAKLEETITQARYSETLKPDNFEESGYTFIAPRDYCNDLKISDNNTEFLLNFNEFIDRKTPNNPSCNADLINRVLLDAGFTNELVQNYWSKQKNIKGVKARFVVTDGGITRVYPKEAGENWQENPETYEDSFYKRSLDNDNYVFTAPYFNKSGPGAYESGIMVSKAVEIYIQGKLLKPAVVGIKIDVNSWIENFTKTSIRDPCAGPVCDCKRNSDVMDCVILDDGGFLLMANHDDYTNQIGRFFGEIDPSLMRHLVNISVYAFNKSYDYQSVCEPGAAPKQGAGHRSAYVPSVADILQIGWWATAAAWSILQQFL
human Cav2.2, sequence (P54289 947-1103 partner limits assumed): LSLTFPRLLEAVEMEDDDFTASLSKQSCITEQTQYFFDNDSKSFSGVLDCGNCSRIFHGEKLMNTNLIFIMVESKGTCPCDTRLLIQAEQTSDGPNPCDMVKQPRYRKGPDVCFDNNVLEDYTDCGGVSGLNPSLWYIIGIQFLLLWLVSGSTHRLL
human Cav2.2, sequence (P54284 whole entry partner): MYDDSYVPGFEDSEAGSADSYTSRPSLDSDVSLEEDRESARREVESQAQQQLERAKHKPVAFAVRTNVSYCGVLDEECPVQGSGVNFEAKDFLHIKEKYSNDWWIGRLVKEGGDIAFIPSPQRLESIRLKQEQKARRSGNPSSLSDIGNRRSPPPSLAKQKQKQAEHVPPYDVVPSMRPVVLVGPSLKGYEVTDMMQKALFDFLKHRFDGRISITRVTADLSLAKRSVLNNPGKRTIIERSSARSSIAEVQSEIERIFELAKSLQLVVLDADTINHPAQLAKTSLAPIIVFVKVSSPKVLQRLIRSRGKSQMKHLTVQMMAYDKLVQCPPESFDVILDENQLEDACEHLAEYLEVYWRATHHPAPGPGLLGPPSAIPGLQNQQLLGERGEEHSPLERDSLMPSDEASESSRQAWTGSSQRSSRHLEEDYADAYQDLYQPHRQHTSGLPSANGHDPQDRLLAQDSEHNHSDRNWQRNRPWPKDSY

**Q.** CCC(CC)N[C@@H](CC(C)(C)C)C(=O)N[C@H]1CC[C@@H]2CN(S(=O)(=O)c3ccc(C(F)(F)F)cc3)C[C@@H]21 [Example 503, N^2-(1-ethylpropyl)-4-methyl-N^1-((3aR,4S,6aS)-2-{[4-(trifluoromethyl)phenyl]sulfonyl}octahydrocyclopenta[c]pyrrol-4-yl)-L-leucinamide] was tested. Which IC50 did it give?
**A.** Its IC50 is 890 nM.

**Q.** With CC(C)(C)C[C@H](NC1CCC1)C(=O)N[C@H]1CC[C@@H]2CN(S(=O)(=O)c3ccc(C(F)(F)F)cc3)C[C@@H]21 [Example 504, N^2-cyclobutyl-4-methyl-N^1-((3aR,4S,6aS)-2-{[4-(trifluoromethyl)phenyl]sulfonyl}octahydrocyclopenta[c]pyrrol-4-yl)-L-leucinamide] as the molecule, how does the IC50 read?
**A.** The IC50 was 910 nM.

**Q.** Which IC50 does the source give for CCC[C@H](NC1CCCCC1)C(=O)N[C@H]1CC[C@@H]2CN(S(=O)(=O)c3ccc(C(F)(F)F)cc3)C[C@@H]21 [Example 507, N^2-cyclohexyl-N^1-((3aR,4S,6aS)-2-{[4-(trifluoromethyl)phenyl]sulfonyl}octahydrocyclopenta[c]pyrrol-4-yl)-L-norvalinamide] here?
**A.** The IC50 was 870 nM.

**Q.** With CC(C)(C)C[C@H](NC1CCCC1)C(=O)N[C@H]1CC[C@@H]2CN(C(=O)[C@H](CC(C)(C)C)NC3CCCC3)C[C@@H]21 [Example 508, N^2-cyclopentyl-N^1-[(3aR,4S,6aS)-2-(N-cyclopentyl-4-methyl-L-leucyl)octahydrocyclopenta[c]pyrrol-4-yl]-4-methyl-L-leucinamide] as the molecule, how does the IC50 read?
**A.** Its IC50 is 8600 nM.

**Q.** Which IC50 does the source give for CC(C)C[C@@H](C(=O)N[C@@H]1CC[C@H]2CN(Cc3ccccc3)C[C@H]21)N(C)CC(C)(C)C [Example 510, N^1-[(3aS,4R,6aR)-2-benzyloctahydrocyclopenta[c]pyrrol-4-yl]-N^2-methyl-N^2-neopentyl-L-leucinamide] here?
**A.** The IC50 was 1680 nM.

**Q.** For CC(C)C[C@@H](C(=O)N[C@@H]1CC[C@H]2CN(Cc3ccccc3)C[C@H]21)N(C)CCC(C)(C)C [Example 511, N^1-[(3aS,4R,6aR)-2-benzyloctahydrocyclopenta[c]pyrrol-4-yl]-N^2-(3,3-dimethylbutyl)-N^2-methyl-L-leucinamide], which IC50 is on record?
**A.** The IC50 was 2120 nM.

**Q.** How did the IC50 turn out when CC(C)C[C@@H](C(=O)N[C@@H]1CC[C@H]2CN(S(=O)(=O)c3cccc(C(F)(F)F)c3)C[C@H]21)N(C)C [Example 512, N^2,N^2-dimethyl-N^1-((3aS,4R,6aR)-2-{[3-(trifluoromethyl)phenyl]sulfonyl}octahydrocyclopenta[c]pyrrol-4-yl)-L-leucinamide] was run?
**A.** The IC50 was 470 nM.

**Q.** Which IC50 does the source give for CC(C)C[C@@H](C(=O)N[C@@H]1CC[C@H]2CN(Cc3ccccc3)C[C@H]21)N(C)Cc1ccc(F)cc1 [Example 513, N^1-[(3aS,4R,6aR)-2-benzyloctahydrocyclopenta[c]pyrrol-4-yl]-N^2-(4-fluorobenzyl)-N^2-methyl-L-leucinamide] here?
**A.** Its IC50 is 2150 nM.

**Q.** With CC(C)[C@@H](CC(=O)N[C@H]1CC[C@@H]2CN(S(=O)(=O)c3cccc(C(F)(F)F)c3)C[C@@H]21)NS(C)(=O)=O [Example 515, (3R)-4-methyl-3-[(methylsulfonyl)amino]-N-((3aR,4S,6aS)-2-{[3-(trifluoromethyl)phenyl]sulfonyl}octahydrocyclopenta[c]pyrrol-4-yl)pentanamide] as the molecule, how does the IC50 read?
**A.** The IC50 was 3170 nM.

**Q.** With CC(C)C[C@H](NS(C)(=O)=O)C(=O)N[C@H]1CC[C@@H]2CN(Cc3cccc(C(F)(F)F)c3)C[C@@H]21 [Example 516, N^2-(methylsulfonyl)-N^1-{(3aR,4S,6aS)-2-[3-(trifluoromethyl)benzyl]octahydrocyclopenta[c]pyrrol-4-yl}-L-leucinamide] as the molecule, how does the IC50 read?
**A.** The IC50 was 2990 nM.

**Q.** With CC(C)C[C@@H](NS(C)(=O)=O)C(=O)N[C@H]1CC[C@@H]2CN(Cc3cccc(C(F)(F)F)c3)C[C@@H]21 [Example 517, N^2-(methylsulfonyl)-N^1-{(3aR,4S,6aS)-2-[3-(trifluoromethyl)benzyl]octahydrocyclopenta[c]pyrrol-4-yl}-D-leucinamide] as the molecule, how does the IC50 read?
**A.** Its IC50 is 4450 nM.

**Q.** How did the IC50 turn out when CCN([C@@H](CC(C)C)C(=O)N[C@H]1CC[C@@H]2CN(Cc3cccc(C(F)(F)F)c3)C[C@@H]21)S(C)(=O)=O [Example 518, N^2-ethyl-N^2-(methylsulfonyl)-N^1-{(3aR,4S,6aS)-2-[3-(trifluoromethyl)benzyl]octahydrocyclopenta[c]pyrrol-4-yl}-L-leucinamide] was run?
**A.** Its IC50 is 810 nM.

**Q.** How did the IC50 turn out when CC(C)(C)C[C@H](NS(C)(=O)=O)C(=O)N[C@H]1CC[C@@H]2CN(Cc3ccc(C(F)(F)F)cc3)C[C@@H]21 [Example 519, 4-methyl-N^2-(methylsulfonyl)-N^1-{(3aR,4S,6aS)-2-[4-(trifluoromethyl)benzyl]octahydrocyclopenta[c]pyrrol-4-yl}-L-leucinamide] was run?
**A.** The IC50 was 5140 nM.

**Q.** CCC[C@H](NS(C)(=O)=O)C(=O)N[C@H]1CC[C@@H]2CN(Cc3ccc(C(F)(F)F)cc3)C[C@@H]21 [Example 521, N^2-(methylsulfonyl)-N^1-{(3aR,4S,6aS)-2-[4-(trifluoromethyl)benzyl]octahydrocyclopenta[c]pyrrol-4-yl}-L-norvalinamide] was tested. Which IC50 did it give?
**A.** The IC50 was 9600 nM.

**Q.** Which IC50 does the source give for CC(C)C[C@H](NS(=O)(=O)C(C)C)C(=O)N[C@@H]1CC[C@H]2CN(Cc3cccc(C(F)(F)F)c3)C[C@H]21 [Example 522, N^2-(isopropylsulfonyl)-N^1-{(3aS,4R,6aR)-2-[3-(trifluoromethyl)benzyl]octahydrocyclopenta[c]pyrrol-4-yl}-L-leucinamide] here?
**A.** The IC50 was 2900 nM.

**Q.** For CC(C)C[C@H](NS(=O)(=O)C1CCCC1)C(=O)N[C@@H]1CC[C@H]2CN(Cc3cccc(C(F)(F)F)c3)C[C@H]21 [Example 524, N^2-(cyclopentylsulfonyl)-N^1-{(3aS,4R,6aR)-2-[3-(trifluoromethyl)benzyl]octahydrocyclopenta[c]pyrrol-4-yl}-L-leucinamide], which IC50 is on record?
**A.** The IC50 was 2070 nM.

**Q.** With CC(C)OC(=O)N[C@@H](CC(C)(C)C)C(=O)N[C@H]1CC[C@@H]2CN(Cc3ccc(C(F)(F)F)cc3)C[C@@H]21 [Example 525, Isopropyl (S)-4,4-dimethyl-1-oxo-1-((3aR,4S,6aS)-2-(4-(trifluoromethyl)benzyl)octahydrocyclopenta[c]pyrrol-4-ylamino)pentan-2-ylcarbamate] as the molecule, how does the IC50 read?
**A.** The IC50 was 1390 nM.

**Q.** Which IC50 does the source give for CC(C)OC(=O)N[C@H](C(=O)N[C@H]1CC[C@@H]2CN(Cc3ccc(C(F)(F)F)cc3)C[C@@H]21)C(C)(C)C [Example 526, Isopropyl (S)-3,3-dimethyl-1-oxo-1-((3aR,4S,6aS)-2-(4-(trifluoromethyl)benzyl)octahydrocyclopenta[c]pyrrol-4-ylamino)butan-2-ylcarbamate] here?
**A.** The IC50 was 2770 nM.

**Q.** CCC[C@H](NC(=O)OC1CCCC1)C(=O)N[C@H]1CC[C@@H]2CN(Cc3ccc(C(F)(F)F)cc3)C[C@@H]21 [Example 527, Cyclopentyl (S)-1-oxo-1-((3aR,4S,6aS)-2-(4-(trifluoromethyl)benzyl)octahydrocyclopenta[c]pyrrol-4-ylamino)pentan-2-ylcarbamate] was tested. Which IC50 did it give?
**A.** The IC50 was 2290 nM.

**Q.** How did the IC50 turn out when CCC[C@H](NC(=O)C(C)(C)C)C(=O)N[C@H]1CC[C@@H]2CN(Cc3ccc(C(F)(F)F)cc3)C[C@@H]21 [Example 528, N^2-(2,2-dimethylpropanoyl)-N^1-{(3aR,4S,6aS)-2-[4-(trifluoromethyl)benzyl]octahydrocyclopenta[c]pyrrol-4-yl}-L-norvalinamide] was run?
**A.** Its IC50 is 7230 nM.

**Q.** Which IC50 does the source give for CCC[C@@H](C(=O)N[C@H]1CC[C@@H]2CN(S(=O)(=O)c3ccc(F)c(Cl)c3)C[C@@H]21)N(C)C(=O)OC(C)(C)C [Example 529, Tert-butyl (S)-1-((3aR,4S,6aS)-2-(3-chloro-4-fluorophenylsulfonyl)octahydrocyclopenta[c]pyrrol-4-ylamino)-1-oxopentan-2-yl(methyl)carbamate] here?
**A.** The IC50 was 960 nM.

**Q.** With CCC[C@@H](C(=O)N[C@H]1CC[C@@H]2CN(S(=O)(=O)c3cccnc3)C[C@@H]21)N(C)C(=O)OC(C)(C)C [Example 530, Tert-butyl methyl((S)-1-oxo-1-((3aR,4S,6aS)-2-(pyridin-3-ylsulfonyl)octahydrocyclopenta[c]pyrrol-4-ylamino)pentan-2-yl)carbamate] as the molecule, how does the IC50 read?
**A.** Its IC50 is 7630 nM.

**Q.** How did the IC50 turn out when CCC[C@H](NC)C(=O)N[C@H]1CC[C@@H]2CN(S(=O)(=O)c3ccc(F)c(Cl)c3)C[C@@H]21 [Example 534, N^1-{(3aR,4S,6aS)-2-[(3-chloro-4-fluorophenyl)sulfonyl]octahydrocyclopenta[c]pyrrol-4-yl}-N^2-methyl-L-norvalinamide] was run?
**A.** Its IC50 is 6380 nM.

**Q.** With CCC[C@H](NC)C(=O)N[C@H]1CC[C@@H]2CN(S(=O)(=O)c3ccc(F)cc3Cl)C[C@@H]21 [Example 539, N^1-{(3aR,4S,6aS)-2-[(2-chloro-4-fluorophenyl)sulfonyl]octahydrocyclopenta[c]pyrrol-4-yl}-N^2-methyl-L-norvalinamide] as the molecule, how does the IC50 read?
**A.** Its IC50 is 4390 nM.

**Q.** Which IC50 does the source give for CCC[C@H](NC)C(=O)N[C@H]1CC[C@@H]2CN(S(=O)(=O)c3cccc4ccccc34)C[C@@H]21 [Example 540, N^2-methyl-N^1-[(3aR,4S,6aS)-2-(1-naphthylsulfonyl)octahydrocyclopenta[c]pyrrol-4-yl]-L-norvalinamide] here?
**A.** Its IC50 is 1670 nM.

**Q.** CCC[C@H](NC)C(=O)N[C@H]1CC[C@@H]2CN(S(=O)(=O)c3ccc(Br)c(C(F)(F)F)c3)C[C@@H]21 [Example 541, N^1-((3aR,4S,6aS)-2-{[4-bromo-3-(trifluoromethyl)phenyl]sulfonyl}octahydrocyclopenta[c]pyrrol-4-yl)-N^2-methyl-L-norvalinamide] was tested. Which IC50 did it give?
**A.** Its IC50 is 2570 nM.

**Q.** Which IC50 does the source give for CCC[C@H](NC)C(=O)N[C@H]1CC[C@@H]2CN(S(=O)(=O)c3ccc(Cl)c(Cl)c3)C[C@@H]21 [Example 542, N^1-{(3aR,4S,6aS)-2-[(3,4-dichlorophenyl)sulfonyl]octahydrocyclopenta[c]pyrrol-4-yl}-N^2-methyl-L-norvalinamide] here?
**A.** The IC50 was 2360 nM.

**Q.** How did the IC50 turn out when CCC[C@H](NC)C(=O)N[C@H]1CC[C@@H]2CN(S(=O)(=O)c3ccc(-c4ccccc4)cc3)C[C@@H]21 [Example 544, N^1-[(3aR,4S,6aS)-2-(1,1′-biphenyl-4-ylsulfonyl)octahydrocyclopenta[c]pyrrol-4-yl]-N^2-methyl-L-norvalinamide] was run?
**A.** Its IC50 is 2150 nM.

**Q.** CCC[C@H](NC)C(=O)N[C@H]1CC[C@@H]2CN(S(=O)(=O)c3cccc(C#N)c3)C[C@@H]21 [Example 546, N^1-{(3aR,4S,6aS)-2-[(3-cyanophenyl)sulfonyl]octahydrocyclopenta[c]pyrrol-4-yl}-N^2-methyl-L-norvalinamide] was tested. Which IC50 did it give?
**A.** Its IC50 is 6320 nM.

Source: patent US8129417B2, “Substituted octahydrocyclopenta[C]pyrrol-4-amines as calcium channel blockers” (Abbott Laboratories, priority 2008, dated 2012)
